Measurements as given in patent publication US20230338370A1, “Treatment of Cancer with TOR Kinase Inhibitors” (Signal Pharmaceuticals, LLC, priority 2012, published 2023).

Columns and labels:
Assay in all cases: Growth inhibition assay for Breast Cancer (BC) Cell lines
Format in all cases: cell-based
[1] = test system: AU565; details: Homo sapiens; AU565, Her2+; 96 hours, Cell Titer-Glo
Method: (§1) Growth inhibition assay for Breast Cancer (BC) Cell lines. Compounds 1 (a TOR kinase inhibitor set forth herein having molecular formula C16H16N8O) and 2 (a TOR kinase inhibitor set forth herein having molecular formula C17H18N8O2) were dissolved in dimethyl sulfoxide (DMSO) to prepare a 10 mM stock solution. A serial titration was performed to produce a working concentration range of 1.5 µM to 10 mM. Aliquots to produce final concentrations of 1.5 nM to 10 µM were spotted via an acoustic dispenser (EDC ATS-100) into an empty 384-well plate. Compounds 1 and 2 were spotted in a 10-point serial dilution fashion (3-fold dilution) in duplicate within the plate. The DMSO concentration was kept constant for a final assay concentration of 0.1% DMSO. Plates were replicated for use with different cell lines and testing periods. After compound plate replication, all plates were sealed (Agilent ThermoLoc) and stored at -20° C. for up to 1 month. […] When ready for testing, plates were removed from the freezer, thawed, and unsealed just prior to the addition of the test cells. Prior to testing, cells were grown and expanded in culture flasks to provide sufficient amounts of starting material. Cells were then diluted to the appropriate densities and added directly to the compound-spotted 384-well plates. Cells were allowed to grow for 96 hours at 37° C./5% CO2. At the time when compound was added (t0), initial cell number was assessed via a viability assay (Cell Titer-Glo) by quantifying the level of luminescence generated by ATP present in viable cells. After 96 hours, cell viability of compound-treated cells was assessed via Cell Titer-Glo and luminescence measurement. Cell lines were assayed for growth inhibition by Compounds 1 and 2 in at least 3 independent tests. A control cell line (the lung tumor cell line, A549) was included in each of the assays. The compound response against this control cell line was monitored closely to enable comparison of the data generated through the assay period. All data were normalized and presented as a percentage of the DMSO-treated cells. Results were then expressed as a GI50 value. The GI50 value corrects for the cell count at time zero.

[2] = test system: BT-474; details: Homo sapiens; BT-474, Her2+; 96 hours, Cell Titer-Glo
Method: as §1

[3] = test system: BT-483; details: Homo sapiens; BT-483, ER+/PR+; 96 hours, Cell Titer-Glo
Method: as §1

[4] = test system: CAMA-1; details: Homo sapiens; CAMA-1, ER+/PR+; 96 hours, Cell Titer-Glo
Method: as §1

[5] = test system: EFM-192A; details: Her2+, 96 hours, Cell Titer-Glo
Method: as §1

[6] = test system: EFM-19; details: Homo sapiens; EFM-19, ER+/PR+; 96 hours, Cell Titer-Glo
Method: as §1

[7] = test system: HCC1428; details: Homo sapiens; HCC1428, ER+/PR+; 96 hours, Cell Titer-Glo
Method: as §1

[8] = test system: HCC1500; details: HCC1500, ER+/PR+; 96 hours, Cell Titer-Glo
Method: as §1

[9] = test system: HCC1569; details: Homo sapiens; HCC1569, Her2+; 96 hours, Cell Titer-Glo
Method: as §1

[10] = test system: HCC1954; details: Homo sapiens; HCC1954, Her2+; 96 hours, Cell Titer-Glo
Method: as §1

[11] = test system: HCC202; details: HCC202, Her2+; 96 hours, Cell Titer-Glo
Method: as §1

[12] = test system: KPL-1; details: KPL-1, ER+/PR+; 96 hours, Cell Titer-Glo
Method: as §1

[13] = test system: MCF7; details: Homo sapiens; MCF7, ER+/PR+; 96 hours, Cell Titer-Glo
Method: as §1

[14] = test system: MDA-MB-134-VI; details: Homo sapiens, ER+/PR+, 96 hours, Cell Titer-Glo
Method: as §1

[15] = test system: MDA-MB-175-VII; details: Homo sapiens, ER+/PR+, 96 hours, Cell Titer-Glo
Method: as §1

[16] = test system: MDA-MB-361; details: Homo sapiens; MDA-MB-361, Her2+; 96 hours, Cell Titer-Glo
Method: as §1

[17] = test system: MDA-MB-415; details: Homo sapiens; MDA-MB-415, ER+/PR+; 96 hours, Cell Titer-Glo
Method: as §1

[18] = test system: MDA-MB-453; details: Homo sapiens; MDA-MB-453, Her2+; 96 hours, Cell Titer-Glo
Method: as §1

[19] = test system: SK-BR-3; details: Homo sapiens; SK-BR-3, Her2+; 96 hours, Cell Titer-Glo
Method: as §1

[20] = test system: T47D; details: Homo sapiens, ER+/PR+, 96 hours, Cell Titer-Glo
Method: as §1

[21] = test system: UACC-812; details: Homo sapiens; UACC-812, Her2+; 96 hours, Cell Titer-Glo
Method: as §1

[22] = test system: ZR-75-1; details: Homo sapiens; ZR-75-1, ER+/PR+; 96 hours, Cell Titer-Glo
Method: as §1

[23] = test system: ZR-75-30; details: Homo sapiens; ZR-75-30, Her2+; 96 hours, Cell Titer-Glo
Method: as §1

- GI50 [1]: 0.0582 µM
- GI50 [2]: 0.0782 µM
- GI50 [3]: 0.0173 µM
- GI50 [4]: 0.0446 µM
- GI50 [5]: 0.0741 µM
- GI50 [6]: 0.0211 µM
- GI50 [7]: 0.0965 µM
- GI50 [8]: 0.0246 µM
- GI50 [9]: 0.12 µM
- GI50 [10]: 0.0733 µM
- GI50 [11]: 0.0089 µM
- GI50 [12]: 0.0507 µM
- GI50 [13]: 0.0834 µM
- GI50 [14]: 0.0695 µM
- GI50 [15]: 0.017 µM
- GI50 [16]: 0.0285 µM
- GI50 [17]: 0.0534 µM
- GI50 [18]: 0.0445 µM
- GI50 [19]: 0.0668 µM
- GI50 [20]: 0.0214 µM
- GI50 [21]: 0.0321 µM
- GI50 [22]: 0.0103 µM
- GI50 [23]: 0.0188 µM
SMILES: COCCN1C(=O)CNc2ncc(-c3ccc(-c4nnc[nH]4)nc3C)nc21 [Compound 2, 1-(2-methoxyethyl)-7-(2-methyl-6-(4H-1,2,4-triazol-3-yl)pyridin-3-yl)-3,4-dihydropyrazino[2,3-b]pyrazin-2(1H)-one]
